The record followed here is ChEMBL document CHEMBL1154259, “Cell recognition enhanced enzyme hydrolysis of a model peptide-drug conjugate” (Bioorg Med Chem Lett, 2009).

Each structure is given as a SMILES string. Activity calls are given as the source filed them. The rule behind the calls is not given here. Where a SMILES comes first, the peptide text is derived from it. The star is where a group is joined. ACC = NC(=O)Cc1cc(=O)oc2cc(N*)ccc12

One test has as its target T1, Papain (Carica papaya) (UniProt P00784).
T1 sequence (whole entry): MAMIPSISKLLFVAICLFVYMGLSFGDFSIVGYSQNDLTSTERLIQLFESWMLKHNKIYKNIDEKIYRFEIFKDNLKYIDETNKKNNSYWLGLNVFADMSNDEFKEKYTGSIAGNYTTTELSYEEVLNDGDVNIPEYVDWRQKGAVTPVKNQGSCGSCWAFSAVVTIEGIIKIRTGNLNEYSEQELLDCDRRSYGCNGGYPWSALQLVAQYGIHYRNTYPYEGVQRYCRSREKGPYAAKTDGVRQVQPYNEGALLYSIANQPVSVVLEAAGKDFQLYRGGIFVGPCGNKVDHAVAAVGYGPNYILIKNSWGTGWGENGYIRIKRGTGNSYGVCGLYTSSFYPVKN
As to the kind of experiment: Activity at Carica papaya papain expressed in human A375 cells assessed as 7-amino-4-carbamoylmethylcoumarin release. Conditions: A-375. The test is classed as cell-based.

Test [1] deals with Integrin alpha-4/beta-1 (Homo sapiens) (UniProt P05556+P13612). As to the kind of experiment: Binding affinity to human integrin alpha4beta1 expressed in human A375 cells by flow cytometry. Conditions: A-375. The test is classed as cell-based. For orientation: A flow cytometer gives signals particle by particle.

Consider `CC(C)C[C@H](N)C(=O)N[C@@H](CC(=O)O)C(=O)N[C@H](C(=O)N[C@@H](CCCNC(=N)N)C(=O)N[C@@H](Cc1c[nH]c2ccccc12)C(=O)N[C@@H](CCC(N)=O)C(=O)N[C@@H](Cc1ccc(O)cc1)C(=O)N[C@H](C(=O)N1CCC[C@H]1C(=O)NCC(=O)N[C@@H](CCCCN)C(=O)N[C@@H](Cc1ccccc1)C(=O)N[C@H](C(=O)N[C@H](C(=O)N[C@@H](CCC(N)=O)C(=O)Nc1ccc2c(CC(N)=O)cc(=O)oc2c1)C(C)C)[C@H](C)O)C(C)C)C(C)C`, for which, on Papain (Carica papaya), the Activity came to 15.6 ng/min.
As for `CC(C)[C@H](NC(=O)[C@@H](NC(=O)[C@H](Cc1ccccc1)NC(=O)[C@H](CCCCN)NC(=O)CNC(=O)[C@@H]1CCCN1C(=O)[C@@H](NC(=O)[C@H](Cc1ccc(O)cc1)NC(=O)[C@H](CCC(N)=O)NC(=O)[C@H](Cc1c[nH]c2ccccc12)NC(=O)[C@@H](N)CCCNC(=N)N)C(C)C)[C@@H](C)O)C(=O)N[C@@H](CCC(N)=O)C(=O)Nc1ccc2c(CC(N)=O)cc(=O)oc2c1` (H-RWQYVPGKFTVQ-{ACC}), the outcome in test [1] was inactive.
